US8859628B2, “Method for preventing, treating and diagnosing disorders of protein aggregation” (priority 2003, dated 2014)
Entries after “also recorded” stand apart in the source; their conditions may differ. Marks after values point to notes of the source that are not given here.

Legend:
[1] = system: TgCRND8 mice; assay: Morris Water Maze, spatial reference memory version, five-day trial paradigm (prevention study); format: in vivo, mouse; conditions: 6 months of age
Description: Age and sex-matched cohorts of TgCRND8 mice and non-transgenic littermates (n=35 in each cohort) were either untreated, or were given a compound of the present invention as indicated below at 30 mg/day/mouse beginning at age of about 6 weeks. The mice were followed for outcome measures cognitive function, brain Aβ levels, brain pathology, and survival at 4 months and 6 months of age.
Two cohorts entered the study at 6 weeks of age and outcomes were analyzed at 4- and 6-months of age. The body weight, coat characteristics and in cage behavior was monitored. All experiments were performed according to the Canadian Council on Animal Care guidelines.
Behavioral tests—After non-spatial pre-training, mice underwent place discrimination training for 5 days with 4 trials per day. Behavioral data was analyzed using a mixed model of factorial analysis of variance (ANOVA) with drug or genotype and training sessions as repeated measure factors.
The cognitive function of TgCRND8 mice was assessed using the spatial reference memory version of the Morris Water Maze using a five-day trial paradigm (FIGS. 1C-1H). […] The improved performance was also not due to nutritional or caloric effects because body weight, activity, and coat condition were not different between treated and untreated cohorts. […] Gender effects were not significant between any treatment group (p=0.85).

[2] = system: TgCRND8 mice; assay: Cerebral Aβ content (Aβ40 and Aβ42 kits on hemi-brain homogenates); format: in vivo, mouse; set-up: Total Aβ: unit not given here
Description: (§1) Plasma and Cerebral Aβ Content—Hemi-brain samples were homogenized in a buffered sucrose solution, followed by either 0.4% diethylamine/100 mM NaCl for soluble Aβ levels or cold formic acid for the isolation of total Aβ. After neutralization the samples were diluted and analyzed for Aβ40 and Aβ42 using commercially available kits (BIOSOURCE International). Each hemisphere was analyzed in triplicate with the mean±SEM reported. Western blot analyses were performed on all fractions using urea gels for Aβ species analyses. Aβ was detected using 6E10 (BIOSOURCE International) and Enhanced Chemiluminenscence (Amersham).
as §1, with “reported.” for “reported. Western blot analyses were performed on all fractions using urea gels for Aβ species analyses. Aβ was detected using 6E10 (BIOSOURCE International) and Enhanced Chemiluminenscence (Amersham).”

[3] = system: TgCRND8 mice; assay: Plasma Aβ levels; format: in vivo, mouse
Description: as §1
as §1, with “reported.” for “reported. Western blot analyses were performed on all fractions using urea gels for Aβ species analyses. Aβ was detected using 6E10 (BIOSOURCE International) and Enhanced Chemiluminenscence (Amersham).”

[4] = system: TgCRND8 mice; assay: Cerebral amyloid plaque burden (anti-Aβ immunostaining, image analysis); format: in vivo, mouse
Description: (§2) Cerebral amyloid burden—Brains were removed and one hemisphere was fixed in 4% paraformaldehyde and embedded in paraffin wax in the mid saggital plane. To generate sets of systematic uniform random sections, 5 μm serial sections were collected across the entire hemisphere. Sets of sections at […] intervals were used for analyses (10-14 sections/set). Plaque were identified after antigen retrieval with formic acid, and incubated with primary anti-Aβ antibody (Dako M-0872), followed by secondary antibody (Dako StreptABCcomplex/horseradish kit). End products were visualized with DAB counter-stained with hematoxylin. Amyloid plaque burden was assessed using Leco IA-3001 image analysis software interfaced with Leica microscope and Hitachi KP-M1U CCD video camera. Vascular burden was analyzed similarly and a dissector was used to measure the diameter of affected vessels.
as §2, with “camera.” for “camera. Vascular burden was analyzed similarly and a dissector was used to measure the diameter of affected vessels.”

[5] = system: TgCRND8 mice; assay: Vascular amyloid burden; format: in vivo, mouse; conditions: 6 months of age
Description: as §2
Alzheimer's disease is characterized by the presence of both parenchymal and vascular amyloid deposits. In untreated 6 month old TgCRND8 mice approximately 0.03% of the brain area is associated with vascular amyloid.

[6] = system: TgCRND8 mice; conditions: mouse, in vivo
Excerpt: Animals were sacrificed after one month of treatment and analysed for pathological outcomes.
In these experiments, the dosage and oral administration of compounds, and the behavioral and neurochemical assays were the same as those employed in the above treatment experiments.

[7] = system: TgPS1xAPP mice; assay: Plaque burden in double transgenic PS1 x APP model (prophylactic trial); format: in vivo, mouse; conditions: 2 months of age
Excerpt: Tg PS1 x APP mice are an enhanced model of Alzheimer's disease which express a mutant human PS1 transgene encoding two familial mutations (M146L and L286V) in conjunction with the human APP transgene encoding the Indiana and Swedish familial mutations. These animals develop robust expression of cerebral Aβ levels and amyloid deposition by 30-45 days of age.

[8] = system: wild type mice; assay: Control experiment: survival and general condition of treated wild type mice; format: in vivo, mouse
[9] = 1 month treatment from 5 months of age
[10] = 1 month treatment, 30 mg/mouse/day from 5 months, analyzed at 6 months of age
[11] = 4 month prevention, 30 mg/mouse/day from 6 weeks of age
[12] = 6 month prevention, 30 mg/mouse/day from 6 weeks of age
[13] = prevention, 6 months of age, vs untreated TgCRND8
[14] = prevention, four months of age, vs untreated TgCRND8

## O[C@H]1[C@H](O)[C@@H](O)[C@H](O)[C@@H](O)[C@@H]1O [Scyllo-Inositol, scyllo-inositol]
[1]
  cognitive function, treated TgCRND8 mice vs non-Tg littermates (words): indistinguishable from non-Tg littermates on all days; also recorded: approached that of non-Tg littermates
  cognitive function, treated vs untreated TgCRND8 mice (words): performed significantly better than untreated TgCRND8 mice
[2]; [9]
  Aβ load vs untreated: significantly decreased the plaque burden and the Aβ load
[2]; [10]
  Total Aβ: 15194 ± 579
[2]; [11]
  Total Aβ: 5089 ± 173
[2]; [12]
  Total Aβ: 15621 ± 151
[2]; [13]
  reduction in Aβ40 levels: 32%
  reduction in Aβ42: 20%
[2]; [14]
  decrease of total brain Aβ40: 62%
  decrease of total brain Aβ42: 22%
[3]; 1 month treatment
  Plasma Aβ Levels: 1980 ± 146 pg/mL
[3]; [9]
  effect on plasma Aβ levels in comparison to untreated (words): Neither myo-inositol, epi-inositol nor scyllo-inositol treatment had any effect on plasma Aβ levels
[3]; 2 month treatment
  Plasma Aβ Levels Aβ40: 4507 ± 207 pg/mL
  Plasma Aβ Levels Aβ42: 3035 ± 236 pg/mL
[3]; 4 month prevention
  Plasma Aβ Levels: 952 ± 49 pg/mL
[3]; 6 month prevention
  Plasma Aβ Levels: 905 ± 55 pg/mL
[3]; prevention, 4- and 6-months of age
  effect on plasma Aβ levels in comparison to untreated (words): Neither epi-inositol nor scyllo-inositol treatment had any effect on plasma Aβ levels
[4]; [9]
  plaque burden vs untreated: significantly decreased the plaque burden and the Aβ load
[4]; [10]
  Plaque Area: 420027 ± 14986* μm^2
  Plaque Count: 1260 ± 27
  Total Plaque Area/Total Brain Area: 0.119 ± 0.010 %
[4]; [11]
  Plaque Area: 63847 ± 2895 μm^2
  Plaque Count: 598 ± 19
  Total Plaque Area/Total Brain Area: 0.015 ± 0.001 %
[4]; [12]
  Plaque Area: 262379 ± 5373† μm^2
  Plaque Count: 774 ± 10
  Total Plaque Area/Total Brain Area: 0.079 ± 0.013 %
[4]; 6 months of age, prevention
  amyloid/plaque burden vs untreated (words): significantly decreased amyloid burden and gliosis; also recorded: decreases plaque deposition
[4]; prevention, 4 months of age
  mean plaque size: 103±4 μm^2
[4]; prevention, 6 months of age
  decrease in brain area covered with plaques: 35%
  mean plaque size: 339±10 μm^2
  reduction in plaque number: 20%
[5]; prevention
  mean size of cerebrovascular plaques: 154±16
[5]; prevention, listed as Scyllo-inositol
  vascular amyloid burden vs untreated (words): significantly decreased the total vascular load
[5]; prevention, listed as scyllo-inositol
  vascular amyloid burden vs untreated (words): significantly decreased the vascular amyloid burden
[5]; smaller vessels
  vascular amyloid deposition in small vessels: 56±2%
[6]
  effects on blood chemistry or organ function: do not exhibit obvious deleterious effects on blood chemistry or organ function
[7]; listed as Scyllo-inositol
  amyloid/plaque burden vs untreated (words): significantly decreased amyloid burden
[7]; listed as scyllo-inositol
  amyloid/plaque burden vs untreated (words): significantly reduced
[7]; treated from weaning
  % brain area covered in plaques: 0.065±0.016%
  Plaque Count: 1514±510
  mean plaque size: 149±5 μm^2
[8]
  survival, weight, fur condition, cage behavior: had no effect either on survival or on other parameters such as weight, fur condition or cage behavior
